From PubChem BioAssay AID720513 (Broad Institute, 2013)
Records with an inconclusive call do not appear.

These compounds were tested on U2OS PGC1a acetylation AlphaLISA, overnight (assay: PGC1a acetylation increase, cellular AlphaLISA – cell-based, cherry-picked samples, set 6, dose response (AID 720513);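 also: cells made to overexpress flag tagged PGC1a plus GCN5 acetyltransferase by viral infection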).
CC(=O)c1ccc(N2CCN(c3ccc(S(=O)(=O)NCCN(C)C)cc3[N+](=O)[O-])CC2)cc1 was tested, and the AC40 was 6.58 µM. For COC(=O)c1ccc(NC(=O)c2cccnc2)cc1, the AC40 was 1.86 µM. Compound C[C@@H]1CN([C@H](C)CO)C(=O)c2cccc(NC(=O)c3ccc(-c4nccs4)cc3)c2O[C@@H]1CN(C)Cc1ccc(C(=O)Nc2ccccc2N)cc1 has an AC40 of under 0.16 µM. CS(=O)(=O)N(CC(=O)N1CCN(c2ccccc2)CC1)c1cccc(Br)c1 was tested, and the AC40 was 17.8 µM. Cc1ccc(S(=O)(=O)N2CCN(S(=O)(=O)c3ccc(C)cc3)C2c2ccccc2)cc1 showed an AC40 of 2.7 µM. COc1ccc(Nc2nnc(-c3ccc(C(N)=O)cc3)c3ccccc23)cc1 showed an AC40 of 0.524 µM. With CCOc1ccc2c(c1)C(C)=CC(C)(C)N2S(=O)(=O)c1ccc(C)cc1 the AC40 was 0.781 µM. Compound C[C@@H]1CN([C@@H](C)CO)C(=O)c2c(c3ccccc3n2C)-c2ccccc2CO[C@@H]1CN(C)C(=O)Nc1ccc(F)cc1 has an AC40 of 7.76 µM. O=S(=O)(c1ccccc1)N(CC(F)(F)F)c1ccc(C(O)(C(F)(F)F)C(F)(F)F)cc1 showed an AC40 of 6.8 µM. CCn1c(=S)[nH]c2cc(S(=O)(=O)N3CCCCC3)ccc21 showed an AC40 of 1.62 µM. With Cc1ccc(C(=O)N2CCN(c3ccc(NC(=O)c4ccc(Br)o4)cc3)CC2)cc1 the AC40 was 3.72 µM. COc1cc(CN2CCCC(CO)(Cc3cccc(Cl)c3)C2)cc2c1OCO2 (stereo not given) showed an AC40 of 8.62 µM. O=C(Cn1c(CN2CCCCC2)nc2ccccc2c1=O)Nc1ccccc1 showed an AC40 of 5.19 µM. In the case of O=S(=O)(NCc1ccccc1Br)c1ccccc1Br, the AC40 is reported as 1.68 µM. CN1/C(=C\C(=O)c2cccc(S(=O)(=O)N3CCCCC3)c2)C(C)(C)c2ccccc21 gave an AC40 of 10.9 µM. In the case of COc1ccc(NC(=O)C(=O)NCCC2CCCCN2S(=O)(=O)c2cccs2)cc1 (stereo not given), the AC40 is reported as 17.9 µM. With C[C@@H](c1ccccc1)N1Cc2ccccc2Oc2cc(Br)ccc2S1(=O)=O the AC40 was 14.3 µM. For COc1cc(-c2nnn(CC#N)n2)ccc1OCc1ccccc1, the AC40 was 0.296 µM. Work on COc1ccc(Nc2nnc(-c3ccc(C(=O)NCCO)cc3)c3ccccc23)cc1 yielded an AC40 of 3.07 µM. O=C(CC1SC(=Nc2ccc3c(c2)OCCO3)NC1=O)Nc1ccc(F)cc1F (stereo not given) gave an AC40 of 0.191 µM. Compound CC(=O)Nc1ccc(Nc2ncnc3c2cnn3-c2ccc(C)cc2C)cc1 has an AC40 of 2.53 µM. COCCN(C)Cc1nc(C(c2ccccc2)c2ccccc2)no1 showed an AC40 of 9.12 µM. Cc1cccc2cc(CN(Cc3ccc(F)cc3)Cc3nnnn3C3CCCC3)c(=O)[nH]c12 showed an AC40 of 4.14 µM. CCOC(=O)CCc1c(C)c2ccc(O)cc2oc1=O showed an AC40 of 0.371 µM. COc1cccc(-c2ccc(C3[C@@H]4CN(Cc5ccccn5)C[C@H]3N4)cc2)c1 (stereo not given in full) showed an AC40 of 13.5 µM.
